What was measured:
Type in all cases: in vivo
[1] = tested on: giant foxtail (Setaria faberii); experiment: Test B pre-/postemergence plant response; settings: for Foxtail, Giant plant response rating (0 to 100 scale): 62 g ai/ha, 0 is no effect
Method in brief: (§1)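 Test compounds, formulated in a non-phytotoxic solvent mixture with surfactant, are applied to the soil surface (loam and sand blend) right after seeding, or sprayed over plants at the 1- to 4-leaf stage grown in peat moss/vermiculite medium. After 13 to 15 days under glasshouse conditions, each species is scored visually from 0 (no effect) to 100 (complete control) against controls.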

[2] = tested on: cocklebur (Xanthium strumarium); experiment: Test B pre-/postemergence plant response; settings: for Cocklebur plant response rating (0 to 100 scale): 62 g ai/ha, 0 is no effect
Method in brief: as §1

[3] = tested on: green foxtail (Setaria viridis); experiment: Test B pre-/postemergence plant response; settings: for Foxtail, Green plant response rating (0 to 100 scale): 62 g ai/ha, 0 is no effect
Method in brief: as §1

[4] = tested on: large crabgrass (Digitaria sanguinalis); experiment: Test A pre-/postemergence plant response
Method in brief: (§2)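 Both pre- and postemergence treatments are applied simultaneously, using chemicals formulated in a non-phytotoxic solvent mixture with surfactant. Postemergence plants are 2–10 cm high with one to two leaves. After approximately ten days in a greenhouse, injury is scored visually from 0 (none) to 100 (complete control) relative to untreated plants.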

[5] = tested on: giant foxtail (Setaria faberii); experiment: Test A pre-/postemergence plant response
Method in brief: as §2

[6] = tested on: corn (Zea mays); experiment: Test A pre-/postemergence plant response
Method in brief: as §2

[7] = tested on: wheat (Triticum aestivum); experiment: Test A pre-/postemergence plant response
Method in brief: as §2

[8] = tested on: morningglory (Ipomoea spp.); experiment: Test A pre-/postemergence plant response
Method in brief: as §2

[9] = tested on: barnyardgrass (Echinochloa crus-galli); experiment: Test A pre-/postemergence plant response
Method in brief: as §2

[10] = tested on: pigweed (Amaranthus retroflexus); experiment: Test A pre-/postemergence plant response
Method in brief: as §2

[11] = tested on: velvetleaf (Abutilon theophrasti); experiment: Test A pre-/postemergence plant response
Method in brief: as §2

[12] = postemergence, 100 is complete control, 13 to 15 days
[13] = Postemergence, 31 g ai/ha, 0 to 100 scale (0 no effect, 100 complete control)
[14] = Postemergence, 125 g ai/ha, scale 0 to 100 (0 no effect, 100 complete control)
[15] = Postemergence, 250 g ai/ha, scale 0 to 100 (0 no effect, 100 complete control), 13 to 15 days
[16] = Postemergence, 125 g ai/ha, 0 to 100 scale where 0 is no effect and 100 is complete control
[17] = Postemergence, 500 g ai/ha, 0 to 100 scale, 0 = no effect, 100 = complete control, approx. ten days
[18] = Preemergence, 125 g ai/ha, 0 to 100 scale, 0 = no effect, 100 = complete control
[19] = Preemergence, 500 g ai/ha, visual injury, 0 to 100 scale (0 no effect, 100 complete control), approx. ten days
[20] = Postemergence, 500 g ai/ha, visual injury, 0 to 100 scale (0 no effect, 100 complete control), approx. ten days
[21] = Preemergence, 500 g ai/ha, 0 to 100 scale, 0 = no effect, 100 = complete control
[22] = 31 g ai/ha, postemergence, scale 0 to 100, 0 is no effect, 100 is complete control
[23] = Postemergence, 125 g ai/ha, visual rating after 13 to 15 days, scale 0 (no effect) to 100 (complete control)
[24] = Postemergence, 250 g ai/ha, scale 0 to 100 (0 no effect, 100 complete control)
[25] = Postemergence, 125 g ai/ha, visual injury, 0 to 100 scale (0 no effect, 100 complete control), approx. ten days

Structure (SMILES): O=C1CCCC(O)=C1C(=O)c1cnc(-c2ccccc2)n(C2CCCCCC2)c1=O [Compound 130]
- Foxtail, Giant plant response rating (0 to 100 scale) [1, 12]: 90
- Plant response rating, Foxtail, Giant [1, 13]: 90
- Plant response rating, Foxtail, Giant [1, 14]: 98
- Plant response rating, Foxtail, Giant [1, 15]: 98
- Cocklebur plant response rating (0 to 100 scale) [2, 12]: 95
- Plant response rating, Cocklebur [2, 13]: 85
- Plant response rating, Cocklebur [2, 14]: 95
- Plant response rating, Cocklebur [2, 15]: 100
- Foxtail, Green plant response rating (0 to 100 scale) [3, 12]: 90
- Plant response rating, Foxtail, Green [3, 13]: 90
- Plant response rating, Foxtail, Green [3, 14]: 95
- Plant response rating, Foxtail, Green [3, 15]: 98
- Plant response rating, Crabgrass, Large [4, 16]: 70
- Plant response rating, Crabgrass, Large [4, 17]: 100
- Plant response rating, Crabgrass, Large [4, 18]: 40
- Plant response rating, Crabgrass, Large [4, 19]: 100
- Plant response rating, Foxtail, Giant [5, 16]: 80
- Plant response rating, Foxtail, Giant [5, 17]: 90
- Plant response rating, Foxtail, Giant [5, 18]: 20
- Plant response rating, Foxtail, Giant [5, 19]: 90
- Plant response rating, Corn [6, 16]: 10
- Plant response rating, Corn [6, 17]: 50
- Plant response rating, Corn [6, 18]: 20
- Plant response rating, Corn [6, 19]: 30
- Plant response rating, Wheat [7, 16]: 0
- Plant response rating, Wheat [7, 17]: 30
- Plant response rating, Wheat [7, 18]: 0
- Plant response rating, Wheat [7, 19]: 0
- Plant response rating, Morningglory [8, 16]: 100
- Plant response rating, Morningglory [8, 17]: 100
- Plant response rating, Morningglory [8, 18]: 10
- Plant response rating, Morningglory [8, 19]: 80
- Plant response rating, Barnyardgrass [9, 16]: 100
- Plant response rating, Barnyardgrass [9, 17]: 100
- Plant response rating, Barnyardgrass [9, 18]: 20
- Plant response rating, Barnyardgrass [9, 19]: 90
- Plant response rating, Pigweed [10, 16]: 100
- Plant response rating, Pigweed [10, 17]: 100
- Plant response rating, Pigweed [10, 18]: 90
- Plant response rating, Pigweed [10, 19]: 100
- Plant response rating, Velvetleaf [11, 16]: 100
- Plant response rating, Velvetleaf [11, 17]: 100
- Plant response rating, Velvetleaf [11, 18]: 80
- Plant response rating, Velvetleaf [11, 19]: 90

Structure (SMILES): CCCn1c(-c2cc(Cl)cc(Cl)c2)ncc(C(=O)C2=C(O)CCCC2=O)c1=O [Compound 173]
- Plant response rating, Foxtail, Giant [1, 13]: 95
- Plant response rating, Foxtail, Giant [1, 14]: 100
- Plant response rating, Foxtail, Giant [1, 15]: 100
- Plant response rating, Cocklebur [2, 13]: 60
- Plant response rating, Cocklebur [2, 14]: 100
- Plant response rating, Cocklebur [2, 15]: 100
- Plant response rating, Foxtail, Green [3, 13]: 55
- Plant response rating, Foxtail, Green [3, 14]: 90
- Plant response rating, Foxtail, Green [3, 15]: 90
- Plant response rating, Crabgrass, Large [4, 16]: 70
- Crabgrass, Large plant response rating [4, 20]: 90
- Plant response rating, Crabgrass, Large [4, 18]: 40
- Plant response rating, Crabgrass, Large [4, 21]: 100
- Plant response rating, Foxtail, Giant [5, 16]: 70
- Foxtail, Giant plant response rating [5, 20]: 90
- Plant response rating, Foxtail, Giant [5, 18]: 20
- Plant response rating, Foxtail, Giant [5, 21]: 40
- Plant response rating, Corn [6, 16]: 0
- Corn plant response rating [6, 20]: 20
- Plant response rating, Corn [6, 18]: 0
- Plant response rating, Corn [6, 21]: 10
- Plant response rating, Wheat [7, 16]: 0
- Wheat plant response rating [7, 20]: 60
- Plant response rating, Wheat [7, 18]: 0
- Plant response rating, Wheat [7, 21]: 20
- Plant response rating, Morningglory [8, 16]: 100
- Morningglory plant response rating [8, 20]: 100
- Plant response rating, Morningglory [8, 18]: 0
- Plant response rating, Barnyardgrass [9, 16]: 90
- Barnyardgrass plant response rating [9, 20]: 100
- Plant response rating, Barnyardgrass [9, 18]: 0
- Plant response rating, Barnyardgrass [9, 21]: 60
- Plant response rating, Pigweed [10, 16]: 100
- Pigweed plant response rating [10, 20]: 100
- Plant response rating, Pigweed [10, 18]: 50
- Plant response rating, Pigweed [10, 21]: 90
- Plant response rating, Velvetleaf [11, 16]: 100
- Velvetleaf plant response rating [11, 20]: 100
- Plant response rating, Velvetleaf [11, 18]: 70
- Plant response rating, Velvetleaf [11, 21]: 100

Structure (SMILES): O=C1CCCC(O)=C1C(=O)c1cnc(-c2ccc(Br)cc2)n(-c2ccccc2)c1=O [Compound 70]
- Plant response rating, Foxtail, Giant [1, 22]: 75
- Foxtail, Giant plant response rating (0 to 100 scale) [1, 12]: 85
- Plant response rating, Foxtail, Giant [1, 23]: 95
- Plant response rating, Foxtail, Giant [1, 24]: 98
- Plant response rating, Cocklebur [2, 22]: 0
- Cocklebur plant response rating (0 to 100 scale) [2, 12]: 0
- Plant response rating, Cocklebur [2, 23]: 40
- Plant response rating, Cocklebur [2, 24]: 40
- Plant response rating, Foxtail, Green [3, 22]: 80
- Foxtail, Green plant response rating (0 to 100 scale) [3, 12]: 85
- Plant response rating, Foxtail, Green [3, 23]: 98
- Plant response rating, Foxtail, Green [3, 24]: 98
- Crabgrass, Large plant response rating [4, 25]: 50
- Plant response rating, Crabgrass, Large [4, 17]: 90
- Plant response rating, Crabgrass, Large [4, 18]: 40
- Plant response rating, Crabgrass, Large [4, 19]: 90
- Foxtail, Giant plant response rating [5, 25]: 50
- Plant response rating, Foxtail, Giant [5, 17]: 90
- Plant response rating, Foxtail, Giant [5, 18]: 30
- Plant response rating, Foxtail, Giant [5, 19]: 60
- Corn plant response rating [6, 25]: 0
- Plant response rating, Corn [6, 17]: 20
- Plant response rating, Corn [6, 18]: 0
- Plant response rating, Corn [6, 19]: 0
- Wheat plant response rating [7, 25]: 0
- Plant response rating, Wheat [7, 17]: 0
- Plant response rating, Wheat [7, 18]: 0
- Plant response rating, Wheat [7, 19]: 0
- Morningglory plant response rating [8, 25]: 100
- Plant response rating, Morningglory [8, 17]: 100
- Plant response rating, Morningglory [8, 18]: 0
- Plant response rating, Morningglory [8, 19]: 10
- Barnyardgrass plant response rating [9, 25]: 50
- Plant response rating, Barnyardgrass [9, 17]: 80
- Plant response rating, Barnyardgrass [9, 18]: 0
- Plant response rating, Barnyardgrass [9, 19]: 10
- Pigweed plant response rating [10, 25]: 100
- Plant response rating, Pigweed [10, 17]: 100
- Plant response rating, Pigweed [10, 18]: 60
- Plant response rating, Pigweed [10, 19]: 100
- Velvetleaf plant response rating [11, 25]: 100
- Plant response rating, Velvetleaf [11, 17]: 100
- Plant response rating, Velvetleaf [11, 18]: 70
- Plant response rating, Velvetleaf [11, 19]: 80

Reference: patent publication US8952024B2, “Herbicidal pyrimidone derivatives” (E I du Pont de Nemours and Company, priority 2009, dated 2015)
